In experiment [1] the test system is H727 lung cancer cell lines (G12V K-Ras mutation). Nature of the experiment: Inhibition of cancer cell proliferation (CellTiter-Glo). It is filed as cell-based. To be noted: Homo sapiens, NCI-H727, 72 h, read-out: Cell proliferation activity (H727 cancer cell line proliferation IC50). As to the method: Compounds of the present invention were measured for their ability to kill H727 lung cancer cell lines, which contain a G12V K-Ras mutation. Cell proliferation experiments were conducted in 96-well plates. Cells were plated at 1000 cells/well, incubated overnight, followed by treatment with a dose range of compound for 3 days at 37° C. Cell proliferation was assessed using a CellTiter-Glo assay (Promega) according to the manufacturer's protocol. Data were normalized to DMSO control. IC50 values were determined using a four-parameter dose-response (variable slope) equation. These assays are performed in a manner analogous to the assay disclosed in: Burns, M. C.; Sun, Q.; Daniels, R. N.; Camper, D. V.; Kennedy, J. P.; Phan, J.; Olejniczak, E. O.; Lee, T.; Waterson, A. G.; Rossanese, O. W.; Fesik, S. W. “Approach for targeting Ras with small molecules that activate SOS-mediated nucleotide exchange” Proc. Natl. Acad. Sci. 2014; 11(9): 3401-3406. PMCID: PMC3948241.

Experiment [2] addresses Ras GEF SOS (Son of Sevenless) (Homo sapiens, UniProt Q07889). Nature of the experiment: SOS-mediated nucleotide exchange on Ras (BODIPY-GDP fluorescence). To be noted: SOS-mediated exchange of BODIPY-GDP for GTP on Ras. It is filed as biochemical. The procedure, abridged: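 Ras loaded with BODIPY-GDP was mixed in buffer with test compound, then GTP and SOS. Fluorescence change from labeled GDP/GTP exchange was followed over time, and rates came from single-exponential fits. EC50 came from a four-parameter fit of mean rate against compound concentration.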

The target in the next experiment is T1, Son of Sevenless (SOS) (Homo sapiens, UniProt Q07889).
T1 sequence (Q07889 564-1049 limits assumed): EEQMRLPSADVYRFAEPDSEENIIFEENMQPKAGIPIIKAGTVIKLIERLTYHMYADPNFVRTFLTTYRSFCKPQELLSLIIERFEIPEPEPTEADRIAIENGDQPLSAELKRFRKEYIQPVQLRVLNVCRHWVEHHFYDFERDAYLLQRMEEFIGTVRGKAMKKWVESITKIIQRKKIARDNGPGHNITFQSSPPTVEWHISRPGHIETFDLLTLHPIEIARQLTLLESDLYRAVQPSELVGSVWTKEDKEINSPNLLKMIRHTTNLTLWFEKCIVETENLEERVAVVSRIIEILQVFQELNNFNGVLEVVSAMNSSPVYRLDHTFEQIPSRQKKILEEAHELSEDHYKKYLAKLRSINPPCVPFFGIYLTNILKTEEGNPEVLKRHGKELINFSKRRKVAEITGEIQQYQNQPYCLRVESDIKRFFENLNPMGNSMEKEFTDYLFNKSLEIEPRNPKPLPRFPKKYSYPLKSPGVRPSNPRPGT
Kind of experiment: Binding to SOS, fluorescence polarization anisotropy (FPA) probe displacement. To be noted: displacement of FITC-conjugated probe (Example 285), affinity calculated from IC50. The procedure, abridged:
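A FITC-conjugated probe compound was incubated with SOS in buffer, and its displacement was tracked as a change in fluorescence anisotropy across a test-compound dose range. IC50 came from a four-parameter variable-slope fit, and binding affinity was calculated from it.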

Where [3] appears, read: H727 cells, 3 days treatment, CellTiter-Glo.

Molecules are shown by their SMILES. Where a name gives a salt, the structure may show the parent alone. Read-outs that look alike come from different tables or passages of the source.

Ras GEF SOS (Son of Sevenless), sequence (P01112 1-166 partner limits assumed, one chain of several): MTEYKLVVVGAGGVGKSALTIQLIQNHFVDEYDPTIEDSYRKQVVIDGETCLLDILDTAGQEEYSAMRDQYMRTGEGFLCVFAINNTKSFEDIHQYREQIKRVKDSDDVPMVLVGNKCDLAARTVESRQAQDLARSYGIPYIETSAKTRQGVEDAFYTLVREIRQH

As to `Cc1ccccc1-c1cccc2c1nc(N1CCNCC1)n2Cc1ccc(F)c(Cl)c1` [Example 79, 1-(3-chloro-4-fluorobenzyl)-2-(piperazin-1-yl)-4-(o-tolyl)-1H-benzo[d]imidazole trifluoroacetate], in experiment [1], the IC50 lay in the range of 5 to 20 µM. Also, the EC50 in experiment [2] lay in the range of 1 to 5 µM.
In the same order, the values of `Fc1ccc(Cn2c(N3CCNCC3)nc3c(-c4ccccc4Cl)cccc32)cc1Cl` [Example 84, 1-(3-chloro-4-fluorobenzyl)-4-(2-chlorophenyl)-2-(piperazin-1-yl)-1H-benzo[d]imidazole trifluoroacetate] are 1 to 5 µM and 1 to 5 µM.
Take `Cc1nn(C)c(C)c1-c1cccc2c1nc(N1CCNCC1)n2Cc1ccc(F)c(Cl)c1` [Example 85, 1-(3-chloro-4-fluorobenzyl)-2-(piperazin-1-yl)-4-(1,3,5-trimethyl-1H-pyrazol-4-yl)-1H-benzo[d]imidazole trifluoroacetate]: the IC50 in experiment [1] fell in the range of 5 to 20 µM. The same compound showed an EC50 in experiment [2] of 1 to 5 µM.
Regarding `Cn1nccc1-c1cccc2c1nc(N1CCNCC1)n2Cc1ccc(F)c(Cl)c1` [Example 86, 1-(3-chloro-4-fluorobenzyl)-4-(1-methyl-1H-pyrazol-5-yl)-2-(piperazin-1-yl)-1H-benzo[d]imidazole trifluoroacetate], the IC50 in experiment [1] is 5 to 20 µM. Moreover, in experiment [2], the concentration giving a half-maximal response (EC50) lay within 1 to 5 µM.
Regarding `Fc1ccc(Cn2c(N3CCNCC3)nc3c(-c4ccc(C(F)(F)F)cc4)cccc32)cc1Cl` [Example 87, 1-(3-chloro-4-fluorobenzyl)-2-(piperazin-1-yl)-4-(4-(trifluoromethyl)phenyl)-1H-benzo[d]imidazole], in experiment [1] (setting [3]), the IC50 lay within 5 to 20 µM. In experiment [2], this compound displayed a concentration giving a half-maximal response (EC50) of 5 to 30 µM.
In the same order, the values of `COc1ccc(-c2cccc3c2nc(N2CCNCC2)n3Cc2ccc(C(F)(F)F)cc2)cc1OC` [Example 91, 4-(3,4-dimethoxyphenyl)-2-(piperazin-1-yl)-1-(4-(trifluoromethyl)benzyl)-1H-benzo[d]imidazole] are 1 to 5 µM and 5 to 30 µM.
In the same order, the values of `Nc1ccc(-c2cccc3c2nc(N2CCNCC2)n3Cc2ccc(C(F)(F)F)cc2)cc1` [Example 92, 4-(2-(piperazin-1-yl)-1-(4-(trifluoromethyl)benzyl)-1H-benzo[d]imidazol-4-yl)aniline] are 1 to 5 µM and 1 to 5 µM.
In the same order, the values of `CC(C)c1ccccc1-c1cccc2c1nc(N1CCNCC1)n2Cc1ccc(C(F)(F)F)cc1` [Example 95, 4-(2-isopropylphenyl)-2-(piperazin-1-yl)-1-(4-(trifluoromethyl)benzyl)-1H-benzo[d]imidazole] are below 1 µM and 1 to 5 µM.
Consider `Cc1cc(-c2cccc3c2nc(N2CCNCC2)n3Cc2ccc(C(F)(F)F)cc2)nn1C` [Example 96, 4-(1,5-dimethyl-1H-pyrazol-3-yl)-2-(piperazin-1-yl)-1-(4-(trifluoromethyl)benzyl)-1H-benzo[d]imidazole], for which, in experiment [1] (setting [3]), the IC50 lay within 1 to 5 µM. The compound further displayed an EC50 in experiment [2] of 1 to 5 µM.
With `CC(C)c1ccccc1-c1cccc2c1nc(N1CCNCC1)n2Cc1cc(F)cc(F)c1` [Example 97, 1-(3,5-difluorobenzyl)-4-(2-isopropylphenyl)-2-(piperazin-1-yl)-1H-benzo[d]imidazole], the IC50 in experiment [1] (setting [3]) was below 1 µM. This compound also gave a concentration giving a half-maximal response (EC50) in experiment [2] of 1 to 5 µM.
Turning to `CCNCc1c(C)c(C)cc2c1nc(N1CCNCC1)n2Cc1cc(C)c(F)c(C)c1` [Example 131, N-((1-(4-fluoro-3,5-dimethylbenzyl)-5,6-dimethyl-2-(piperazin-1-yl)-1H-benzo[d]imidazol-4-yl)methyl)ethanamine trifluoroacetate], the IC50 in experiment [1] was below 1 µM. In experiment [2], this compound displayed a concentration giving a half-maximal response (EC50) of 1 to 5 µM.
With `Cc1cc(CNCC(C)C)c2nc(N3CCNCC3)n(Cc3cc(C)c(F)c(C)c3)c2c1` [Example 133, N-((1-(4-fluoro-3,5-dimethylbenzyl)-6-methyl-2-(piperazin-1-yl)-1H-benzo[d]imidazol-4-yl)methyl)-2-methylpropan-1-amine trifluoroacetate], the IC50 in experiment [1] fell in the range of 1 to 5 µM. This compound also gave a concentration for a half-maximal effect (EC50) in experiment [2] of 1 to 5 µM.
For the compound `Cc1cc2c(nc(N3CCNCC3)n2Cc2cc(C)c(F)c(C)c2)c(CO)c1C` [Example 138, (1-(4-fluoro-3,5-dimethylbenzyl)-5,6-dimethyl-2-(piperazin-1-yl)-1H-benzo[d]imidazol-4-yl)methanol trifluoroacetate], in experiment [1], the IC50 was in the range of 5 to 20 µM. In addition, the EC50 in experiment [2] was in the range of 1 to 5 µM.
`Cc1cc(Cn2c(N3CCNCC3)nc3c(C4NCCc5c4[nH]c4ccccc54)cc(Cl)cc32)cc(C)c1F` (stereo not drawn) [Example 140, 1-(6-chloro-1-(4-fluoro-3,5-dimethylbenzyl)-2-(piperazin-1-yl)-1H-benzo[d]imidazol-4-yl)-2,3,4,9-tetrahydro-1H-pyrido[3,4-b]indole trifluoroacetate]: the IC50 in experiment [1] was in the range of 1 to 5 µM. Moreover, the concentration for a half-maximal effect (EC50) in experiment [2] was in the range of 1 to 5 µM.
For the compound `C=C[C@H](N)c1cc(Cl)cc2c1nc(N1CCNCC1)n2Cc1cc(C)c(F)c(C)c1` [Example 155, (S)-1-(6-chloro-1-(4-fluoro-3,5-dimethylbenzyl)-2-(piperazin-1-yl)-1H-benzo[d]imidazol-4-yl)prop-2-en-1-amine trifluoroacetate], the IC50 in experiment [1] is below 1 µM. This compound also had an EC50 in experiment [2] below 1 µM.
Regarding `CC[C@H](N)c1cc(Cl)cc2c1nc(N1CCNCC1)n2Cc1cc(C)c(F)c(C)c1` [Example 157, (S)-1-(6-chloro-1-(4-fluoro-3,5-dimethylbenzyl)-2-(piperazin-1-yl)-1H-benzo[d]imidazol-4-yl)propan-1-amine trifluoroacetate], the IC50 in experiment [1] fell in the range of 1 to 5 µM. For the same compound, in experiment [2], the 50% effective concentration (EC50) is below 1 µM.
In the same order, the values of `CC[C@H](N)c1cc(Cl)cc2c1nc(NCCN)n2Cc1cc(C)c(F)c(C)c1` [Example 158, (S)—N^1-(4-(1-aminopropyl)-6-chloro-1-(4-fluoro-3,5-dimethylbenzyl)-1H-benzo[d]imidazol-2-yl)ethane-1,2-diamine trifluoroacetate] are 5 to 20 µM and 1 to 5 µM.
For `Cc1cc(Cn2c(NCCN)nc3c(Cl)nccc32)ccc1F` [Example 223, N^1-(4-chloro-1-(4-fluoro-3-methylbenzyl)-1H-imidazo[4,5-c]pyridin-2-yl)ethane-1,2-diamine], the IC50 in experiment [1] (setting [3]) was above 20 µM. The compound also had a concentration giving a half-maximal response (EC50) in experiment [2] of 5 to 30 µM.
In the same order, the values of `Cc1cc(Cn2c(N3CCNCC3)nc3ccc(OC(C)C(F)(F)F)nc32)ccc1F` (stereo not drawn) [Example 258, 3-(4-fluoro-3-methylbenzyl)-2-(piperazin-1-yl)-5-((1,1,1-trifluoropropan-2-yl)oxy)-3H-imidazo[4,5-b]pyridine] are 1 to 5 µM and 5 to 30 µM.
For `Cc1cc(Cn2c(N3CCCC(N)C3)nc3ccc(OC(C)C(F)(F)F)nc32)ccc1F` (stereo not drawn) [Example 261, 1-(3-(4-fluoro-3-methylbenzyl)-5-((1,1,1-trifluoroprpan-2-yl)oxy)-3H-imidazo[4,5-b]pyridin-2-yl)piperidin-3-amine] the same measures were below 1 µM and 30 to 100 µM.
Regarding `Cc1cc(Cn2c(N3CC(CN)C3)nc3ccc(OCCN(C)C)nc32)ccc1F` [Example 262, 2-((2-(3-(aminomethyl)azetidin-1-yl)-3-(4-fluoro-3-methylbenzyl)-3H-imidazo[4,5-b]pyridin-5-yl)oxy)-N,N-dimethylethan-1-amine], in experiment [1] (setting [3]), the IC50 lay in the range of 5 to 20 µM. Also, the concentration giving a half-maximal response (EC50) in experiment [2] lay within 30 to 100 µM.
With `Cc1cc(-c2c(C)c(C)cc3c2nc(N2CCNCC2)n3Cc2ccc(F)c(Cl)c2)n(C)n1` [Example 286, 1-(3-chloro-4-fluorobenzyl)-4-(1,3-dimethyl-1H-pyrazol-5-yl)-5,6-dimethyl-2-(piperazin-1-yl)-1H-benzo[d]imidazole], the IC50 in experiment [1] (setting [3]) fell in the range of 1 to 5 µM.
Consider `Cc1cc2nc(N3CCNC(=O)C3)n(Cc3cc(C)c(F)c(C)c3)c2cc1C` [Example 332, 4-(1-(4-fluoro-3,5-dimethylbenzyl)-5,6-dimethyl-1H-benzo[d]imidazol-2-yl)piperazin-2-one], for which the EC50 in experiment [2] lay within 5 to 30 µM. Besides, the Ki at Son of Sevenless (SOS) is above 5 µM.

The values above are taken from patent US10501421B1, “Substituted benzimidazoles as modulators of Ras signaling” (VANDERBILT UNIVERSITY, priority 2017, dated 2019).
